Assays:
[1] = test system: GSR gene; assay: Amplification of mRNA expression of GSR gene (quantitative real-time PCR); type: cell-based, human; conditions: NHEKs, corrected with GAPDH, control = 1
Description: (§1) A test for confirming the amplification of mRNA expression of each transporter-related gene in epidermal cell was performed.
(§2) Normal human epidermal keratinocytes (NHEKs) were seeded on a 96-well plate at a cell density of 2.0×10^4cells/well using HuMedia-KG2 medium (manufactured by Kurabo Industries Ltd.), and cultured under the conditions of 37° C. and 5% CO2 for 24 hours.
(§3) Thereafter, a diacylglycerol PEG adduct was added thereto using HuMedia-KB2 medium (manufactured by Kurabo Industries Ltd.), and each was cultured under the conditions of 37° C. and 5% CO2 for a predetermined time. Table 1 represents the target gene, the types of diacylglycerol PEG adduct added, the adding amount, and the culture time. A control (no addition) was also cultured under the same conditions.
(§4) After the cells were cultured for each predetermined time, RNA was extracted from the cells of each sample and control. The extracted RNA was reverse-transcribed to prepare cDNA, and the mRNA of the target gene was quantified by quantitative real-time PCR expression analysis. […]
(§5) In the analysis, the mRNA expression level of each target gene was corrected with the value of the expression level of GAPDH, which is an internal standard in the same sample, and the correction value of the sample was calculated as a relative expression level when the correction value of the control was set to 1.

[2] = test system: SVCT2 gene; assay: Amplification of mRNA expression of SVCT2 gene (quantitative real-time PCR); type: cell-based, human; conditions: NHEKs; 100 μM; culture 30 hr; corrected with GAPDH, control = 1
Description: as §1, §2, §3, §4, §5

[3] = test system: ABCC1 gene; assay: Amplification of mRNA expression of ABCC1 gene (quantitative real-time PCR); type: cell-based, human; conditions: NHEKs, corrected with GAPDH, control = 1
Description: as §1, §2, §3, §4, §5

[4] = test system: SLC7A11 gene; assay: Amplification of mRNA expression of SLC7A11 gene (quantitative real-time PCR); type: cell-based, human; conditions: NHEKs; 100 μM; culture 24 hr; corrected with GAPDH, control = 1
Description: as §1, §2, §3, §4, §5

[5] = test system: Normal human epidermal keratinocytes (NHEKs); assay: Evaluation of cellular uptake action of vitamin C: hydroquinone cytotoxicity, neutral red assay; type: cell-based; conditions: then 400 μM hydroquinone 24 hours
Description: This evaluation was performed by quantifying the cytotoxicity of hydroquinone (HQ) when a diacylglycerol PEG adduct, vitamin C, and hydroquinone were added to epidermal cells.
Normal human epidermal keratinocytes (NHEKs) were seeded on a 96-well plate at a cell density of 2.0×10^4 cells/well using HuMedia-KG2 medium and cultured under the conditions of 37° C. and 5% CO: for 24 hours.
Thereafter, using HuMedia-KB2 medium, a sample to which 50 μM of PEG-23 glycerol distearate (GDS23) was added and a sample to which GDS23 was not added were respectively cultured under the conditions of 37° C. and 5% CO: for 24 hours.
Subsequently, the samples were washed with PBS (−), and the GDS23-added samples and the GDS23 non-added samples were respectively cultured in the following six media for 24 hours. • HuMedia-KB2 medium containing 0 μM of ascorbic acid (AsA) • HuMedia-KB2 medium containing 1 μM of ascorbic acid (AsA) • HuMedia-KB2 medium containing 5 μM of ascorbic acid (AsA) • HuMedia-KB2 medium containing 10 μM of ascorbic acid (AsA) • HuMedia-KB2 medium containing 50 μM of ascorbic acid (AsA) • HuMedia-KB2 medium containing 100 μM of ascorbic acid (AsA)
The control (no addition of any of GDS23, AsA, and HQ) was cultured only in HuMedia-KB2 medium.

[6] = test system: Normal human epidermal keratinocytes (NHEKs); assay: Evaluation of cellular uptake action of cystine: hydroquinone cytotoxicity, neutral red assay; type: cell-based; conditions: then 400 μM hydroquinone 24 hours
Description: From the test results of (1) and (2) described above, it was confirmed that the expression of the SLC7A11 genes was enhanced by the application of the diacylglycerol PEG adduct to epidermal cells, and thus the production of the protein, which is the xCT transporter encoded thereby, was enhanced. Therefore, the cellular uptake action of cystine was actually evaluated. This evaluation was performed by quantifying the cytotoxicity of hydroquinone (HQ) when a diacylglycerol PEG adduct, cystine, and hydroquinone were added to epidermal cells.
Normal human epidermal keratinocytes (NHEKs) were seeded on a 96-well plate at a cell density of 2.0×10^4 cells/well using HuMedia-KG2 medium and cultured under the conditions of 37° C. and 5% CO2 for 24 hours.
Thereafter, using HuMedia-KB2 medium, a sample to which 50 μM of PEG-23 glycerol distearate (GDS23) was added and a sample to which GDS23 was not added were respectively cultured under the conditions of 37° C. and 5% CO2 for 24 hours.
Subsequently, the samples were washed with PBS (−), and the GDS23-added samples and the GDS23 non-added samples were respectively cultured in the following three media for 30 hours. The cysteine added to the medium is oxidized in the medium or between cells to be converted into cystine, which is a dimer, and is incorporated into the cells as cystine. • HuMedia-KB2 medium containing 0 μM of cysteine (Cys) • HuMedia-KB2 medium containing 10 μM of cysteine (Cys) • HuMedia-KB2 medium containing 50 μM of cysteine (Cys)
Further, the cells were washed with PBS (−) and cultured in HuMedia-KB2 medium containing 400 μM of hydroquinone (HQ) for 24 hours.
The control (no addition of any of GDS23, Cys, and HQ) was cultured only in HuMedia-KB2 medium.
Thereafter, the cell viability was measured by the neutral red assay. The cell viability was calculated for each of the GDS23-added samples and the GDS23 non-added samples, taking the cell viability of the control as 100%.

[7] = test system: SVCT2 protein; assay: Test for enhanced production of SVCT2 proteins (Western blotting); type: cell-based, human; conditions: NHEKs, 50 μM, 24 hours
Description: A test for confirming the enhanced production of proteins encoded by the SVCT2 genes was performed using Western blotting.
Normal human epidermal keratinocytes (NHEKs) were seeded on a 96-well plate at a cell density of 1.0×10^5 cells/well using HuMedia-KG2 medium and cultured under the conditions of 37° C. and 5% CO2 for 24 hours.
Thereafter, 50 μM of PEG-23 glycerol distearate (GDS23) was added thereto using HuMedia-KB2 medium, and the cells were cultured under the conditions of 37° C. and 5% CO2 for 24 hours. A control (no addition) was cultured only in HuMedia-KB2 medium.
After culturing, Western blotting was applied. First, proteins were extracted from the cells using […] containing 10% mercaptoethanol. The protein extract solution was subjected to electrophoresis using a polyacrylamide gel, and the proteins were transferred to a membrane by a semi-dry method. The amount of the SVCT2 protein was corrected with the amount of GAPDH, which is an internal standard in the same sample, and the correction value of the sample was calculated with the correction value of the control set to 1.

For PEG-12 glycerol dimyristate [GDM12], which “relative expression level of GSR gene” value ([1]; 100 μM, culture 30 hr) is on record?
Its value is “about 1.5 times that of the control”.

And the “relative expression level of SVCT2 gene” value [2]?
Its value is “about 1.4 times that of the control”.

And the “relative expression level of ABCC1 gene” value ([3]; 100 μM, culture 30 hr)?
The value was “about 1.3 times that of the control”.

What about the “relative expression level of SLC7A11 gene” value [4] of the same compound?
The value was “about 1.4 times that of the control”.

`O=C1O[C@H]([C@@H](O)CO)C(O)=C1O` [ascorbic acid, reference compound] was tested. Which “effect of ascorbic acid on the cytotoxicity caused by hydroquinone (cell viability)” value ([5]; GDS23 non-added samples, ascorbic acid 5 to 100 μM, 24 hours, versus ascorbic acid non-added sample) did it give?
Its value is “almost no effect”.

Which “effect of cysteine (cystine) on the cytotoxicity caused by hydroquinone (cell viability)” value ([6]; GDS23 non-added samples, cysteine 10 μM and 50 μM, 30 hours, versus cysteine non-added sample) does the source give for `N[C@@H](CS)C(=O)O` [cysteine, reference compound] here?
Its value is “almost no effect”.

How did the “relative expression level of GSR gene” value ([1]; 50 μM, culture 24 hr) turn out when PEG-23 glycerol distearate [GDS23] was run?
Its value is “about 1.8 times that of the control”.

And the “SVCT2 protein band (Western blot image)” value ([7]; FIG. 11)?
Its value is “increase”.

And the “amount of the SVCT2 protein” value ([7]; Western blot, corrected with GAPDH, control = 1)?
The value was “about 1.4 times that in the control sample”.

And the “relative expression level of ABCC1 gene” value ([3]; 50 μM, culture 24 hr)?
The value was “about 2.1 times that of the control”.

What about the “cytotoxicity by hydroquinone (cell viability), GDS23-added versus GDS23 non-added samples” value ([5]; 50 μM GDS23 24 hours, ascorbic acid 0-100 μM 24 hours) of the same compound?
The value was “significantly reduced”.

What about the “cell viability of ascorbic acid-added samples versus ascorbic acid non-added sample among GDS23-added samples” value ([5]; 50 μM GDS23 24 hours, ascorbic acid 1-100 μM 24 hours) of the same compound?
Its value is “higher”.

And the “cytotoxicity by hydroquinone (cell viability), GDS23-added versus GDS23 non-added samples” value ([6]; 50 μM GDS23 24 hours, cysteine 0-50 μM 30 hours)?
Its value is “significantly reduced”.

What about the “cell viability of cysteine-added samples versus cysteine non-added sample among GDS23-added samples” value ([6]; 50 μM GDS23 24 hours, cysteine 10 or 50 μM 30 hours) of the same compound?
The value was “higher”.

Reference: patent US20250049693A1, “METHOD FOR AMPLIFYING EXPRESSION OF TRANSPORTER-RELATED GENE IN EPIDERMAL CELLS” (J-Network, Inc., priority 2023, published 2025)
